# From ChEMBL document CHEMBL1201862, “PubChem BioAssay data set” (2004)
#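 1) Cells in 96-well plates. 2) Compound, 48 h, 5 concentrations. 3) Linear interpolation between surrounding doses. 4) Unreached endpoint = highest concentration. At the GI50, growth is halved.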 The source made the active and inactive calls. Rule as the data show it: active = GI50 up to about 1.1 µM and inactive = higher.
# Tests used:
# Test in all cases: growth of human tumour cells (NCI), 48 h
# CAKI-1 = system: CAKI-1
# SNB-75 = system: SNB-75
# M14 = system: M14
# IGROV-1 = system: IGROV-1
# SK-MEL-2 = system: SK-MEL-2
# UACC-62 = system: UACC-62
# MDA-MB-435 = system: MDA-MB-435
# SNB-19 = system: SNB-19
# A498 = system: A498
# LOX IMVI = system: LOX IMVI
# NCI-H23 = system: NCI-H23
# SK-MEL-5 = system: SK-MEL-5
# SF-539 = system: SF-539
# MOLT-4 = system: MOLT-4
# EKVX = system: EKVX
# SF-268 = system: SF-268
# DU-145 = system: DU-145
# MCF7 = system: MCF7
# PC-3 = system: PC-3
# UACC-257 = system: UACC-257
# SR = system: SR
# OVCAR-4 = system: OVCAR-4
# NCI/ADR-RES = system: NCI/ADR-RES
# HOP-92 = system: HOP-92
# RPMI-8226 = system: RPMI-8226
# HT-29 = system: HT-29
# Malme-3M = system: Malme-3M
# A549 = system: A549
# KM12 = system: KM12
# HL-60 = system: HL-60
# K562 = system: K562
# COLO 205 = system: COLO 205
# U-251 = system: U-251
# HCT-15 = system: HCT-15
# SK-OV-3 = system: SK-OV-3
# NCI-H522 = system: NCI-H522
# RXF 393 = system: RXF 393
# OVCAR-3 = system: OVCAR-3
# HOP-62 = system: HOP-62
# OVCAR-8 = system: OVCAR-8
# SW-620 = system: SW-620
# NCI-H460 = system: NCI-H460
# ACHN = system: ACHN
# MDA-N = system: MDA-N
# SN12C = system: SN12C
# SF-295 = system: SF-295
# SK-MEL-28 = system: SK-MEL-28
# BT-549 = system: BT-549
# HCC 2998 = system: HCC 2998
# 786-0 = system: 786-0
# CCRF-CEM = system: CCRF-CEM
# UO-31 = system: UO-31
# HCT-116 = system: HCT-116
# T47D = system: T47D
# Hs-578T = system: Hs-578T
# NCI-H226 = system: NCI-H226
# OVCAR-5 = system: OVCAR-5
# TK-10 = system: TK-10
smiles,measurement,setting,value
CN(C)c1ncnc2c1ncn2C1C=CC(COS(N)(=O)=O)C1 (configuration not stated),GI50,CAKI-1,> 100 µM (inactive)
same,GI50,SNB-75,> 100 µM (inactive)
same,GI50,M14,> 100 µM (inactive)
same,GI50,IGROV-1,> 100 µM (inactive)
same,GI50,SK-MEL-2,> 100 µM (inactive)
same,GI50,UACC-62,> 100 µM (inactive)
same,GI50,MDA-MB-435,> 100 µM (inactive)
same,GI50,SNB-19,> 100 µM (inactive)
same,GI50,A498,> 100 µM (inactive)
same,GI50,LOX IMVI,96.2 µM (inactive)
same,GI50,NCI-H23,80.9 µM (inactive)
same,GI50,SK-MEL-5,> 100 µM (inactive)
same,GI50,SF-539,> 100 µM (inactive)
same,GI50,MOLT-4,> 100 µM (inactive)
same,GI50,EKVX,> 100 µM (inactive)
same,GI50,SF-268,> 100 µM (inactive)
same,GI50,DU-145,> 100 µM (inactive)
same,GI50,MCF7,> 100 µM (inactive)
same,GI50,PC-3,60.7 µM (inactive)
same,GI50,UACC-257,> 100 µM (inactive)
same,GI50,SR,> 100 µM (inactive)
same,GI50,OVCAR-4,> 100 µM (inactive)
same,GI50,NCI/ADR-RES,> 100 µM (inactive)
same,GI50,HOP-92,> 100 µM (inactive)
same,GI50,RPMI-8226,> 100 µM (inactive)
same,GI50,HT-29,> 100 µM (inactive)
same,GI50,Malme-3M,> 100 µM (inactive)
same,GI50,A549,> 100 µM (inactive)
same,GI50,KM12,> 100 µM (inactive)
same,GI50,HL-60,> 100 µM (inactive)
same,GI50,K562,82.4 µM (inactive)
same,GI50,COLO 205,> 100 µM (inactive)
same,GI50,U-251,> 100 µM (inactive)
same,GI50,HCT-15,> 100 µM
same,GI50,SK-OV-3,> 100 µM (inactive)
same,GI50,NCI-H522,47.2 µM (inactive)
same,GI50,RXF 393,66.1 µM (inactive)
same,GI50,OVCAR-3,> 100 µM (inactive)
same,GI50,HOP-62,> 100 µM (inactive)
same,GI50,OVCAR-8,83.6 µM (inactive)
same,GI50,SW-620,> 100 µM (inactive)
same,GI50,NCI-H460,> 100 µM (inactive)
same,GI50,ACHN,> 100 µM (inactive)
same,GI50,MDA-N,> 100 µM (inactive)
same,GI50,SN12C,> 100 µM (inactive)
same,GI50,SF-295,> 100 µM (inactive)
same,GI50,SK-MEL-28,> 100 µM (inactive)
same,GI50,BT-549,> 100 µM (inactive)
same,GI50,HCC 2998,> 100 µM (inactive)
same,GI50,786-0,> 100 µM (inactive)
same,GI50,CCRF-CEM,> 100 µM (inactive)
same,GI50,UO-31,> 100 µM (inactive)
same,GI50,HCT-116,> 100 µM (inactive)
same,GI50,T47D,> 100 µM (inactive)
same,GI50,Hs-578T,44.5 µM (inactive)
COC(=O)c1ccccc1/C=C1\Cc2ccc(C)c(C)c2C1=O,GI50,CAKI-1,> 100 µM (inactive)
same,GI50,SNB-75,35.4 µM (inactive)
same,GI50,NCI-H226,> 100 µM (inactive)
same,GI50,M14,> 100 µM (inactive)
same,GI50,IGROV-1,> 100 µM (inactive)
same,GI50,SK-MEL-2,> 100 µM (inactive)
same,GI50,UACC-62,> 100 µM (inactive)
same,GI50,MDA-MB-435,> 100 µM (inactive)
same,GI50,SNB-19,44.5 µM (inactive)
same,GI50,A498,> 100 µM (inactive)
same,GI50,LOX IMVI,> 100 µM (inactive)
same,GI50,NCI-H23,> 100 µM (inactive)
same,GI50,SK-MEL-5,> 100 µM (inactive)
same,GI50,SF-539,> 100 µM (inactive)
same,GI50,MOLT-4,> 100 µM (inactive)
same,GI50,EKVX,> 100 µM (inactive)
same,GI50,SF-268,54.5 µM (inactive)
same,GI50,DU-145,> 100 µM (inactive)
same,GI50,MCF7,> 100 µM (inactive)
same,GI50,PC-3,> 100 µM (inactive)
same,GI50,UACC-257,> 100 µM (inactive)
same,GI50,SR,> 100 µM (inactive)
same,GI50,OVCAR-4,> 100 µM (inactive)
same,GI50,NCI/ADR-RES,> 100 µM (inactive)
same,GI50,HOP-92,34.2 µM (inactive)
same,GI50,RPMI-8226,> 100 µM (inactive)
same,GI50,HT-29,> 100 µM (inactive)
same,GI50,Malme-3M,> 100 µM (inactive)
same,GI50,A549,> 100 µM (inactive)
same,GI50,KM12,> 100 µM (inactive)
same,GI50,HL-60,> 100 µM (inactive)
same,GI50,K562,> 100 µM (inactive)
same,GI50,COLO 205,> 100 µM (inactive)
same,GI50,U-251,48.6 µM (inactive)
same,GI50,HCT-15,> 100 µM
same,GI50,OVCAR-5,> 100 µM (inactive)
same,GI50,NCI-H522,65.5 µM (inactive)
same,GI50,RXF 393,> 100 µM (inactive)
same,GI50,OVCAR-3,> 100 µM (inactive)
same,GI50,HOP-62,59.8 µM (inactive)
same,GI50,OVCAR-8,> 100 µM (inactive)
same,GI50,SW-620,> 100 µM (inactive)
same,GI50,NCI-H460,> 100 µM (inactive)
same,GI50,ACHN,> 100 µM (inactive)
same,GI50,MDA-N,> 100 µM (inactive)
same,GI50,SN12C,> 100 µM (inactive)
same,GI50,SF-295,77.8 µM (inactive)
same,GI50,SK-MEL-28,> 100 µM (inactive)
same,GI50,BT-549,> 100 µM (inactive)
same,GI50,HCC 2998,> 100 µM (inactive)
same,GI50,786-0,51.4 µM (inactive)
same,GI50,CCRF-CEM,> 100 µM (inactive)
same,GI50,TK-10,> 100 µM (inactive)
same,GI50,UO-31,> 100 µM (inactive)
same,GI50,HCT-116,> 100 µM (inactive)
same,GI50,T47D,> 100 µM (inactive)
same,GI50,Hs-578T,92.9 µM (inactive)
